In US9506039B2, “Efficient method for establishing induced pluripotent stem cells” (Kyoto University, priority 2010, dated 2016):

B1: Wnt3a: Wnt3a purchased from R&D systems Inc., added to the medium (protein, UniProt P56704 19-352, looked up)
Protein Wnt-3a: SYPIWWSLAVGPQYSSLGSQPILCASIPGLVPKQLRFCRNYVEIMPSVAEGIKIGIQECQHQFRGRRWNCTTVHDSLAIFGPVLDKATRESAFVHAIASAGVAFAVTRSCAEGTAAICGCSSRHQGSPGKGWKWGGCSEDIEFGGMVSREFADARENRPDARSAMNRHNNEAGRQAIASHMHLKCKCHGLSGSCEVKTCWWSQPDFRAIGDFLKDKYDSASEMVVEKHRESRGWVETLRPRYTYFKVPTERDLVYYEASPNFCEPNPETGSFGTRDRTCNVSSHGIDGCDLLCCGRGHNARAERRREKCRCVFHWCCYVSCQECTRVYDVHTCK

System: human dermal fibroblasts (HDF: cell name 1616)
Assay: iPS cell colony establishment, 3 genes (Oct3/4, Sox2, Klf4) plus added gene or compound
Format: cell-based
Details: Example 9, FIG. 9; Oct3/4, Sox2, Klf4 plus agent in medium (PS48 10 μM, CHIR99021 1 μM, Wnt3a 10 ng/ml); day 32
Description: The following genes were introduced into human dermal fibroblasts (HDF: cell name 1616, purchased from Cell applications, Inc.) in the same manner as in the aforementioned Example 1.
In addition, the culture condition was changed (5×10^5 cells/well), and the following genes were introduced into human dermal fibroblasts (HDF: cell name 1616, purchased from Cell applications, Inc.) in the same manner.
In the same manner as in the aforementioned Example 1, the following genes were introduced into dermal fibroblasts (HDF: cell name 1616) in the presence of each low-molecular-weight compound.
The following genes were introduced into dermal fibroblasts (HDF: cell name 1616) in the same manner as in the aforementioned Example 1.
The following genes were introduced into human dermal fibroblasts (HDF: cell name 1616) in the same manner as in the aforementioned Example 1.
Furthermore, the following genes were introduced into human dermal fibroblasts (HDF: cell name 1616).

| Molecule | number of human iPS cell colonies |
| --- | --- |
| Cc1c[nH]c(-c2cnc(NCCNc3ccc(C#N)cn3)nc2-c2ccc(Cl)cc2Cl)n1 [CHIR99021] | tended to decrease |
| O=C(O)/C=C(/CCc1ccc(Cl)cc1)c1ccccc1 [PS48] | increased significantly |
| B1 | increased significantly |
